Tests used:
Experiment in all cases: relative viability (nuclei count vs DMSO), 5 days (fraction); higher = more cells survive
Lapatinib + Palbociclib = compound: CS(=O)(=O)CCNCc1ccc(-c2ccc3ncnc(Nc4ccc(OCc5cccc(F)c5)c(Cl)c4)c3c2)o1 [Lapatinib] + CC(=O)c1c(C)c2cnc(Nc3ccc(N4CCNCC4)cn3)nc2n(C2CCCC2)c1=O [Palbociclib] (partner 0.5 µM)
Method in brief: (§1)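 Nuclei were stained with Hoechst during a one-step fixation (final 0.05% Triton X-100, 1% formaldehyde, 1 ug/ml Hoechst) carried out 5 days after dosing, then counted on 4× images. The cells, lung cancer lines in 1536-well plates, had been dosed by pin tool the day after seeding with one drug alone or a fixed anchor-drug dose plus five library-drug doses (not always all listed) in √10 steps. Relative viability is the nuclei count in treated wells divided by that in vehicle wells, and each value is the median of duplicate plates.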

Lapatinib + Pictilisib = compound: CS(=O)(=O)CCNCc1ccc(-c2ccc3ncnc(Nc4ccc(OCc5cccc(F)c5)c(Cl)c4)c3c2)o1 [Lapatinib] + CS(=O)(=O)N1CCN(Cc2cc3nc(-c4cccc5[nH]ncc45)nc(N4CCOCC4)c3s2)CC1 [Pictilisib] (partner 1 µM)
Method in brief: as §1

Wnt-C59 + AZD7762 = compound: CC1=NC=CC(=C1)C2=CC=C(C=C2)CC(=O)NC3=CC=C(C=C3)C4=CN=CC=C4 [Wnt-C59] + NC(=O)Nc1cc(-c2cccc(F)c2)sc1C(=O)N[C@H]1CCCNC1 [AZD7762] (partner 0.2 µM)
Method in brief: as §1

Lapatinib + Trametinib = compound: CS(=O)(=O)CCNCc1ccc(-c2ccc3ncnc(Nc4ccc(OCc5cccc(F)c5)c(Cl)c4)c3c2)o1 [Lapatinib] + CC(=O)Nc1cccc(-n2c(=O)n(C3CC3)c(=O)c3c(Nc4ccc(I)cc4F)n(C)c(=O)c(C)c32)c1 [Trametinib] (partner 0.02 µM)
Method in brief: as §1

Cell Line | relative viability (Lapatinib + Palbociclib; first compound 0.02 µM) | relative viability (Lapatinib + Palbociclib; first compound 0.06325 µM) | relative viability (Lapatinib + Palbociclib; first compound 0.2 µM) | relative viability (Lapatinib + Palbociclib; first compound 0.6325 µM) | relative viability (Lapatinib + Palbociclib; first compound 2 µM) | relative viability (Lapatinib + Pictilisib; first compound 0.02 µM) | relative viability (Lapatinib + Pictilisib; first compound 0.06325 µM) | relative viability (Lapatinib + Pictilisib; first compound 0.2 µM) | relative viability (Lapatinib + Pictilisib; first compound 0.6325 µM) | relative viability (Lapatinib + Pictilisib; first compound 2 µM) | relative viability (Wnt-C59 + AZD7762; first compound 0.001 µM) | relative viability (Wnt-C59 + AZD7762; first compound 0.01 µM) | relative viability (Wnt-C59 + AZD7762; first compound 0.03162 µM) | relative viability (Wnt-C59 + AZD7762; first compound 0.1 µM) | relative viability (Lapatinib + Trametinib; first compound 0.02 µM) | relative viability (Lapatinib + Trametinib; first compound 0.06325 µM) | relative viability (Lapatinib + Trametinib; first compound 0.2 µM) | relative viability (Lapatinib + Trametinib; first compound 0.6325 µM) | relative viability (Lapatinib + Trametinib; first compound 2 µM)
HCC-827 | 0.435 | 0.433 | 0.461 | 0.257 | 0.415 | 0.947 | 1.13 | 0.891 | 1.02 | 0.574 | 0.274 | 0.27 | 0.219 | 0.175 | 0.479 | 0.487 | 0.536 | 0.517 | 0.408
HOP-62 | – | 0.44 | 0.457 | 0.451 | 0.432 | – | 0.66 | 0.76 | 0.816 | 0.672 | 0.403 | 0.598 | 0.769 | 0.478 | – | 0.378 | 0.343 | 0.472 | 0.293
IA-LM | – | – | – | – | – | 0.227 | 0.297 | 0.223 | 0.21 | 0.222 | – | – | – | – | – | – | – | – | –
LC-2-ad | – | 0.522 | 0.527 | 0.501 | 0.476 | – | 0.425 | 0.543 | 0.431 | 0.322 | 0.851 | 0.829 | 0.882 | 0.865 | – | 0.804 | 0.906 | 0.864 | 0.837
LCLC-97TM1 | – | 0.135 | 0.248 | 0.19 | 0.233 | – | – | 0.223 | 0.227 | 0.203 | 0.287 | 0.303 | 0.362 | 0.206 | – | 0.131 | 0.205 | 0.181 | 0.137
LCLC-103H | 0.445 | 0.486 | 0.478 | 0.533 | 0.441 | – | 0.555 | 0.695 | 0.636 | 0.494 | 0.798 | 0.712 | 0.824 | 0.775 | 0.659 | 0.641 | 0.664 | 0.668 | 0.631
LK-2 | 0.634 | – | 0.832 | – | 1.01 | – | – | 0.424 | 0.615 | 0.531 | 0.417 | 0.407 | 0.486 | 0.461 | 0.858 | – | 0.782 | 0.663 | 0.832
NCI-H520 | 0.221 | 0.2 | 0.231 | 0.291 | 0.238 | 0.308 | 0.285 | 0.269 | 0.332 | 0.348 | – | – | – | – | 0.692 | 0.62 | 0.642 | 0.845 | 0.557
NCI-H522 | – | 0.749 | 0.954 | 1.02 | 0.777 | – | – | – | – | – | 0.857 | 0.863 | 0.877 | 0.637 | – | 0.636 | 0.688 | 0.809 | 0.655
NCI-H596 | – | – | – | – | – | 0.39 | 0.388 | 0.4 | 0.415 | 0.407 | 1.06 | 1.03 | 0.987 | 1.08 | – | 0.745 | 0.777 | 0.854 | 0.617
NCI-H661 | 0.374 | 0.382 | 0.325 | 0.356 | 0.3 | 0.397 | 0.381 | 0.29 | 0.307 | 0.324 | – | – | – | – | 0.509 | 0.536 | 0.549 | 0.432 | 0.388
NCI-H1299 | – | – | – | – | – | 0.871 | 0.768 | 0.859 | 0.801 | 0.803 | – | – | – | – | – | – | – | – | –
NCI-H1563 | – | – | – | – | – | 0.592 | 0.643 | 0.6 | 0.725 | 0.693 | – | – | – | – | – | – | – | – | –
NCI-H1648 | – | 0.222 | 0.294 | 0.285 | 0.252 | – | – | – | – | – | 0.565 | 0.797 | 0.53 | 0.622 | – | 0.307 | 0.256 | 0.339 | 0.233
NCI-H1650 | 0.315 | 0.314 | 0.379 | 0.3 | 0.299 | 0.253 | 0.415 | 0.672 | 0.663 | 0.503 | – | – | – | – | 0.568 | 0.516 | 0.514 | 0.46 | 0.444
NCI-H1703 | – | – | – | – | – | 0.231 | 0.213 | 0.228 | 0.32 | 0.275 | 0.158 | 0.107 | 0.135 | 0.129 | – | – | – | – | –
NCI-H2009 | 0.192 | 0.213 | 0.177 | 0.253 | 0.233 | 0.357 | 0.747 | 0.989 | 0.853 | 0.974 | – | – | – | – | 0.266 | 0.236 | 0.295 | 0.294 | 0.268
NCI-H2023 | – | 0.266 | 0.324 | 0.242 | 0.264 | 0.164 | 0.15 | 0.262 | 0.276 | 0.199 | – | – | – | – | – | 0.397 | 0.429 | 0.433 | 0.328
NCI-H2228 | 0.395 | 0.606 | 0.744 | 0.739 | 0.54 | 0.51 | 0.321 | 0.567 | 0.403 | 0.259 | – | – | – | – | 0.112 | 0.441 | 0.609 | 0.583 | 0.27
NCI-H2342 | 0.504 | 0.491 | 0.501 | 0.553 | 0.484 | – | – | – | – | – | 0.525 | 0.498 | 0.495 | 0.457 | 0.706 | 0.722 | 0.65 | 0.676 | 0.629
SK-LU-1 | 0.36 | 0.394 | 0.455 | 0.44 | 0.392 | – | 0.504 | 0.634 | 0.754 | 0.57 | – | – | – | – | 0.377 | 0.43 | 0.439 | 0.557 | 0.507
SK-MES-1 | 0.338 | 0.384 | 0.326 | 0.328 | 0.299 | 0.36 | 0.3 | 0.235 | 0.257 | 0.199 | – | – | – | – | 0.512 | 0.446 | 0.425 | 0.339 | 0.275
SW 900 | – | 0.514 | 0.554 | 0.586 | 0.43 | – | – | – | – | – | 0.602 | 0.615 | 0.555 | 0.562 | – | 0.829 | 0.785 | 0.771 | 0.689
SW 1573 | – | 0.384 | 0.411 | 0.372 | 0.359 | 0.471 | 0.444 | 0.61 | 0.452 | 0.533 | – | – | – | – | – | 0.577 | 0.527 | 0.606 | 0.515

From the supplement of paper PMC10307832
